Measured values from patent US20260193668A1, “NOVEL PEPTIDES AND USE THEREOF FOR MODULATING PROTEIN ACCUMULATION” (UNIVERSITE TOULOUSE III - PAUL SABATIER, priority 2022, published 2026).

Columns and labels:
Botrytis cinerea = assay: Infection assay of A. thaliana leaves inoculated with B. cinerea; assay type: in vivo; settings: 100 μM peptide, compared with plants treated with an irrelevant peptide
Description: (§1) (a, b) Length of primary roots of A. thaliana seedlings treated with a Scrambled cPEPdcl1 or with a cPEPdcl1. (c) Relative chlorophyll content of A. thaliana seedlings treated with the corresponding peptide. (d) Resumption of growth of A. thaliana seedlings after heat shock at 45° C. for 45 min and treated with the corresponding peptide. (e) Relative lesion area of A. thaliana seedlings infected with B. cinerea and treated with the indicated peptide. (f) Measurement of the flowering day of A. thaliana plants treated with the indicated peptides. (g, h) Flowering day of A. thaliana plants treated with an irrelevant peptide or a mixture of cPEPs (targeting EIN2, BR11, BAK1 and WUS). (i, j) Leaf area of A. thaliana plants treated with an irrelevant peptide or a mixture of cPEPs (targeting EIN2, BR11, BAK1 and WUS).
(a) Quantification of CPK3 expression, using CPK3 antibodies, in peptide-treated A. thaliana plants. (b-c) Infection assay of peptide-treated A. thaliana leaves inoculated with B. cinerea spores.
Wild-type or mutant A. thaliana leaves were sprayed daily with 100 μM of peptide or 100 μM of the corresponding scramble version for 3 days. Six hours after the last treatment, five mature leaves per plant were inoculated with a 5 μL droplet of 2.5×10^5 spores/mL of Botrytis cinerea strain B05.10 diluted in 100 μM of peptide or its corresponding scramble version. After inoculation, plants were maintained at 100% relative humidity. Then, a 2 μL droplet of 100 μM of peptide or 100 μM of the corresponding scramble version was deposited daily on B. cinerea-infected leaves for 3 days (until symptoms appeared). Leaves were removed from the plants to determine lesion areas using the ImageJ programme. For tomato, the protocol was the same except that inoculation was carried out with 5,000 B. cinerea spores, without peptides. Peptides were added 1 h after inoculation (1 μL of 500 μM) and each day for two days with 5 μL of 100 μM peptide. For infection of M. truncatula with A. euteiches, plants were grown on agar medium and treated with 10 μL of 100 μM peptide, 24 h before, 24 h and 72 h after infection with 10 μL (1000 spores) of A. euteiches spores. Plants were harvested 7 days after inoculation for RNA extraction.

A. thaliana plants = assay: Flowering day of A. thaliana plants; assay type: in vivo, Arabidopsis thaliana; settings: sprayed with 10 μM peptide three times a week until flowering
Description: as §1
N. benthamiana plants were treated by spraying the leaves 24 h before harvesting. For Luc assays, 100 μL of MS/2 liquid medium containing the peptides was added to each well. 5 μL of luciferin was added and luciferase activity was read 30 min later using a spectrophotometer. All other assays were performed by spraying or watering the plants. To quantify the protein level induced by cPEPs in Arabidopsis, rosettes were sprayed daily with 100 μM of peptide or its control for 5 days. Leaves were harvested 6 h after the last treatment for western blot analysis. For the flowering assay and chlorophyll content, 10-day-old Arabidopsis plants were sprayed with 500 μL of 10 μM peptide three times a week until flowering. Chlorophyll content was measured using the SPAD chlorophylometer (Konica Minolta). Leaf area was measured using ImageJ software. Barbarea vulgaris and A. hypochondriacus seedlings were treated immediately after sowing and 3 times a week with 500 μL of a 20 μM mixture of each peptide. For western blotting, a heat shock was performed by placing 20-day-old plants grown in 24-well plates on MS/2 for 90 min at 37° C. before harvesting. The plants were treated with 100 μM of peptide for 24 h. For the heat shock resistance test on A. thaliana, 3-day-old seedlings were treated for three days with 100 μM of peptide before placing the plants at 45° C. for 45 min. The plants were placed in a growth chamber to recover and treated 24 h after heat shock with 100 μM of peptide. For soybean heat shock, one-week-old seedlings were treated for 48 h, 24 h and 30 min before being placed at 45° C. for 24 h. For soybean growth, seedlings were treated 3 times a week for a fortnight with 500 μL of 100 μM peptide.

luciferase mRNA = assay: RNA-IP followed by PCR on plants treated with HA-tagged peptides; assay type: binding, Arabidopsis thaliana; settings: anti-HA magnetic beads
Excerpt: Analysis of luciferase expression in A. thaliana constitutively expressing the LUC transgene. (a) Agarose gel after PCR amplification of RNA obtained by immunoprecipitation using anti-HA magnetic beads, followed by RT-PCR, on plants treated with the indicated peptide (SC-HA: Scrambled cPEPluc-HA; Luc-HA: cPEPluc-HA). (b) Relative expression of the luciferase transgene in plants treated with the indicated peptide, quantified by RT-qPCR. (c-e) Relative quantification of LUC in plants treated with the indicated peptide. (f, g) Ratio between induction and quantification of LUC in plants treated with cPEPluc compared to plants treated with Scrambled cPEPluc, using different peptide concentrations (f) or taken at different time points (g). (h) Transcriptomic analysis of plants treated with cPEPluc-HA compared to plants treated with Scrambled cPEPluc-HA. (i) Proteomic analysis of plants treated with cPEPluc-HA compared to plants treated with Scrambled cPEPluc-HA. Protein expression was analysed by Western blots and quantified using ImageJ.
RNA co-immunoprecipitation was adapted from Merret et al. (Plant Physiol. 174:1216-1225. 2017). 400 mg of tissue powder was incubated in 3 mL of lysis buffer (200 mM Tris, pH 9.0, 110 mM potassium acetate, 0.5% Triton X-100, 0.1% Tween© 20, 5 mM DTT, 1.5% protease inhibitor and 80 units·ml-1 RNasin). […]

A. thaliana seedlings = assay: Relative chlorophyll content of A. thaliana; assay type: in vivo, Arabidopsis thaliana; settings: sprayed with 10 μM peptide three times a week
Description: as §1
N. benthamiana plants were treated by spraying the leaves 24 h before harvesting. For Luc assays, 100 μL of MS/2 liquid medium containing the peptides was added to each well. 5 μL of luciferin was added and luciferase activity was read 30 min later using a spectrophotometer. […] To quantify the protein level induced by cPEPs in Arabidopsis, rosettes were sprayed daily with 100 μM of peptide or its control for 5 days. […] Chlorophyll content was measured using the SPAD chlorophylometer (Konica Minolta). Leaf area was measured using ImageJ software. […]

Aphanomyces euteiches = assay: M. truncatula seedlings infected with A. euteiches; assay type: in vivo; settings: 100 μM peptide
Excerpt: (§2) (a) FRET-FLIM analysis of the interaction between cPEPnsp1-FAM and NSP1 (left) or NSP1ΔcPEP (right) in planta. (b) qRT-PCR quantification of NSP1 expression in M. truncatula roots treated with cPEPnsp1 or Scrambled cPEPnsp1. (c) GUS quantification of peptide-treated M. truncatula roots carrying the Pro NSP1-NSP1-GUS fusion. (d, e) Quantification of NSP1 expression in N. benthamiana leaves after infiltration of different constructs: ‘wild type’ i.e. version of NSP1 wherein the cPEP sequence has been deleted (NSP1 ΔcPEP) or version of NSP1 wherein the cPEP sequence has been replaced by an artificial sequence (NSP1 ΔcPEP-cPEPartificial), with an empty vector (control) or cPEPnsp1 or cPEPartificial. (f, g) Formation of lateral roots of M. truncatula WT seedlings, nsp1 or overexpressing NSP1, in response to cPEPnsp1 or Scrambled cPEPnsp1. (h, i) Quantification of nodules on roots of M. truncatula roots treated with an irrelevant peptide or cPEPskl. (j) Root development of M. truncatula seedlings infected with A. euteiches and treated with an irrelevant peptide or cPEPrh10. (k) Relative expression of A. euteiches α-tubulin in M. truncatula seedlings infected with A. euteiches and treated with an irrelevant peptide or cPEPrh10.
Quantification of mRNAs was performed by qRT-PCR using appropriate primer pairs selected from the sequences: SEQ ID NOs: 367 to 374. […]

M. truncatula seedlings = assay: Formation of lateral roots of M. truncatula seedlings; assay type: in vivo, Medicago truncatula
Excerpt: as §2, with “(j) Root development of M. truncatula seedlings infected with A. euteiches and treated with an irrelevant peptide or cPEPrh10. (k) Relative expression of A. euteiches α-tubulin in M. truncatula seedlings infected with A. euteiches and treated with an irrelevant peptide or cPEPrh10.” left out
In order to verify whether cPEPs can target any protein, the activity of 12 cPEPs targeting 12 different proteins for which antibodies were available was studied and validated in three different plant species. The question was whether the increase in the quantity of proteins observed after treatment with cPEP was sufficient to modulate plant development. […]

Q: For SEQ ID NO: 162 (RSSKTELWTR; cPEPcpk3), which “lesion size (plant defence against Botrytis cinerea)” value (“lesion size” for short) (Botrytis cinerea) is on record?
A: decrease

Q: For SEQ ID NO: 181 (NKGKTVEGWR; cPEPtap46), which “plant development, measured by the day of flowering” value (“plant development … of flowering” below) (A. thaliana plants) is on record?
A: decrease

Q: SEQ ID NO: 182 (ASGNETDEYD; cPEPspt) was tested. Which “plant development … of flowering” value (A. thaliana plants) did it give?
A: decrease

Q: With SEQ ID NO: 183 (SDFSSKYRED; cPEPga2ox7) as the substance, how does the “plant development … of flowering” value (A. thaliana plants) read?
A: decrease

Q: Which “plant development … of flowering” value (A. thaliana plants) does the source give for SEQ ID NO: 184 (LRETDLKDRR; cPEPphyb) here?
A: decrease

Q: Which “plant development … of flowering” value (A. thaliana plants) does the source give for SEQ ID NO: 185 (VERRETPSGE; cPEPhag5) here?
A: decrease

Q: For SEQ ID NO: 186 (HGEARDSEEV; cPEPshr), which “plant development … of flowering” value (A. thaliana plants) is on record?
A: decrease

Q: For “SEQ ID NO: 187 (KEPEQRKRKS; cPEPmapkkk3)”, which “lesion size” value (Botrytis cinerea) is on record?
A: decrease

Q: “SEQ ID NO: 188 (PLTGGRRDSK; cPEPmapkkk5_1)” was tested. Which “lesion size” value (Botrytis cinerea) did it give?
A: decrease

Q: SEQ ID NO: 194 (ERKFRLHKSP; cPEPabcg34) was tested. Which “lesion size” value (Botrytis cinerea) did it give?
A: decrease

Q: For SEQ ID NO: 195 (IRLDTGEEPD; cPEPagb1), which “lesion size” value (Botrytis cinerea) is on record?
A: decrease

Q: SEQ ID NO: 198 (RHRNLVRLQG; AhBRI1) was tested. Which “plant development … of flowering” value (A. thaliana plants) did it give?
A: decrease

Q: With SEQ ID NO: 199 (ARGLAYLHE; AhBAK1) as the substance, how does the “plant development … of flowering” value (A. thaliana plants) read?
A: decrease

Q: For SEQ ID NO: 204 (NPVERSRHRD; cPEPein2_1), which “plant development … of flowering” value (A. thaliana plants) is on record?
A: decrease

Q: Which “interaction with luciferase mRNA (RNA-IP followed by PCR)” value (luciferase mRNA) does the source give for “SEQ ID NO: 386: Scrambled peptide corresponding to HA-tagged cPEPluc (RNYKNGRTHLYPYDVPDYA; Scrambled cPEPluc-HA) [reference compound]” here?
A: could not

Q: SEQ ID NO: 406 (EKVVERRQRR; cPEPabi5) was tested. Which chlorophyll content (A. thaliana seedlings) did it give?
A: decreasing

Q: SEQ ID NO: 407 (EWKKVKGKMS; cPEPsgr1) was tested. Which chlorophyll content (A. thaliana seedlings) did it give?
A: increasing

Q: SEQ ID NO: 412 (QRLSLRNPLK; cPEPrh10) was tested. Which “root development (resistance to the pathogen)” value (Aphanomyces euteiches) did it give?
A: increased

Q: And the “expression of A. euteiches α-tubulin in roots” value (Aphanomyces euteiches; 7 days after inoculation)?
A: decreased

Q: With “cPEPjar1 (PETNFERDSS; cPEPjar1) [SEQ ID NO: 192, cPEP targeting the A. thaliana plant defence regulator JAR1]” as the substance, how does the “lesion size” value (Botrytis cinerea) read?
A: decrease

Q: “cPEPluc-HA: HA-tagged cPEPluc (KRYGLNTNHRYPYDVPDYA; cPEPluc-HA)” was tested. Which “interaction with luciferase mRNA (RNA-IP followed by PCR)” value (luciferase mRNA) did it give?
A: able to interact

Q: How did the “plant development … of flowering” value (A. thaliana plants) turn out when “cPEPmrb1 (NSEITKTAND; cPEPmrb1) [SEQ ID NO: 180]” was run?
A: increased

Q: For cPEPnsp1 (DYGTKSNIRS; cPEPnsp1_3), which “amount of lateral roots” value (M. truncatula seedlings; M. truncatula WT seedlings) is on record?
A: decreased

Q: And the “sensitivity of lateral root formation to the peptide” value (M. truncatula seedlings; nsp1 mutant and NSP1-overexpressing M. truncatula)?
A: insensitive

Q: “cPEPshy2 (EENRSELLQR; cPEPshy2) [SEQ ID NO: 178]” was tested. Which “plant development … of flowering” value (A. thaliana plants) did it give?
A: increased

Q: Which “plant development … of flowering” value (A. thaliana plants) does the source give for “cPEPwus (RWTPTTEQIK; cPEPwus) [SEQ ID NO: 196]” here?
A: decrease
